Where a SMILES comes first, the peptide text is derived from it.

Results on three molecules are retold here after patent US7071166B2, “Skin wound healing promoters” (Santen Pharmacetical Co., Ltd., priority 2000, dated 2006).

The subject of assay [1] is ear tissue pieces (epidermal cell layer). Put plainly: Action on epidermal extension (cultured rat ear tissue pieces). The format is cell-based, rats (Spraque-Dawley). The settings on record: for Extension length of epidermis: TCM 199 medium, cultured 24 hours, substance P or FGLM 20 μM, IGF-I 10 ng/ml, average of 12 samples; for Epidermal extension compared with control (in words): each drug used solely. As for the experimental part: Excessive pentobarbital was administered to rats (Spraque-Dawley), and then ear tissue pieces of about 2×4 mm were prepared. Into a 60 mm Petri dish was put 18 ml of each TCM 199 culture medium containing each of test drugs in Table 1 [substance P, FGLM (SEQ ID NO: 2), IGF-I, substance P+IGF-I and FGLM (SEQ ID NO: 2)+IGF-I], and […] were added to each Petri dish (12 samples: three sections per group). The tissue pieces were cultured in a CO2 incubator (37° C.·5% CO2) for 24 hours, the tissue pieces were fixed with ethanol-acetic acid (volume ratio 95:5) to prepare three tissue sections per tissue piece according to the conventional method. The tissue sections were stained with hematoxylin-eosin, and then length of a epidermal cell layer having extended cut surfaces was measured. The tissue pieces were cultured under the same condition as mentioned above using a culture medium containing no test drug to prepare controls. The values in the table are the average of 12 samples.

For assay [2], the system named is full-thickness wounds on back skin of non-diabetes rats (non DM Rat). As to the kind of experiment: Action on skin wound healing, non-diabetes rats. The assay is classed as in vivo, rats (Wistar). The settings on record: ointment once a day, substance P 2.5 mg/ml, IGF-I 1 μg/ml, average of five. As for the experimental part: (§1) Streptozotocin (70 mg/kg BW) dissolved in a citric acid buffer was injected intravenously into tails of rats (Wistar) under diethyl ether inhalation anesthesia to prepare diabetes rats (DM Rat) (five rats per group). An equal amount of the citric acid buffer alone was injected intravenously into rats (Wistar) to prepare non-diabetes rats (non DM Rat) (five rats per group). Four weeks after the intravenous injection, the back of all the rats was shaved with hair clippers under diethyl ether inhalation anesthesia, and hair was removed with cream for depilation. After 24 hours, five full-thickness (i.e. epidermis and dermis) wounds were made on back skin in equal intervals with a trepan for skin biopsy having a diameter of 5 mm. Confirming hemostasis, each ointment in Tables 2 and 3 was applied on the wound once a day. Just before applying the ointment once a day, the back wounds were photographed, and their areas were measured. […] The values in these tables are the average of five samples.

Assay [3] relates to full-thickness wounds on back skin of diabetes rats (DM Rat). As to the kind of experiment: Action on skin wound healing, streptozotocin diabetes rats. The following applies: ointment once a day, substance P 2.5 mg/ml, IGF-I 1 μg/ml, average of five. The assay is classed as in vivo, rats (Wistar). As for the experimental part: as §1

For the molecule `CSCC[C@H](NC(=O)[C@H](CC(C)C)NC(=O)CNC(=O)[C@@H](N)Cc1ccccc1)C(N)=O` [FGLM, Phe-Gly-Leu-Met-NH2] (H-FGLM-NH2), in assay [1], the “Extension length of epidermis” value amounted to 55.37 μm and the “Epidermal extension compared with control (in words)” value is recorded as “almost as long as that in the case where the control is used”.
For the molecule `CSCC[C@H](NC(=O)[C@H](CC(C)C)NC(=O)CNC(=O)[C@H](Cc1ccccc1)NC(=O)[C@H](Cc1ccccc1)NC(=O)[C@H](CCC(N)=O)NC(=O)[C@H](CCC(N)=O)NC(=O)[C@@H]1CCCN1C(=O)[C@H](CCCCN)NC(=O)[C@@H]1CCCN1C(=O)[C@@H](N)CCCNC(=N)N)C(N)=O` [Substance P, Arg-Pro-Lys-Pro-Gln-Gln-Phe-Phe-Gly-Leu-Met-NH2], the “Skin wound area of non-diabetes rat” value in assay [2] (1st day) is reported as 100%; in assay [2] (After 2 days), 88%; in assay [2] (After 4 days) it was 74%; in assay [2] (After 6 days), 59%. Moreover, the “Extension length of epidermis” value in assay [1] is 72.57 μm. For the same molecule, the “Epidermal extension compared with control (in words)” value in assay [1] is “almost as long as that in the case where the control is used”. Besides, the “Skin wound area of diabetes rat” value in assay [3] (1st day) amounted to 100%; in assay [3] (After 1 day) it was 90%; in assay [3] (After 4 days), 77%; in assay [3] (After 7 days), 68%; in assay [3] (After 10 days) it was 44%.
IGF-I: insulin-like growth factor-I: the “Skin wound area of non-diabetes rat” value in assay [2] (1st day) turned out to be 100%; in assay [2] (After 2 days), 81%; in assay [2] (After 4 days), 66%; in assay [2] (After 6 days) it was 43%. For the same molecule, the “Extension length of epidermis” value in assay [1] is 50.68 μm. Further, in assay [1], the “Epidermal extension compared with control (in words)” value was “almost as long as that in the case where the control is used”. The “Skin wound area of diabetes rat” value in assay [3] (1st day) is given as 100%; in assay [3] (After 1 day) it was 89%; in assay [3] (After 4 days), 64%; in assay [3] (After 7 days), 52%; in assay [3] (After 10 days), 27%.
